The source made the active and inactive calls.
Tests used:
Nakaseomyces glabratus [1] = assay: Antifungal activity against Candida glabrata 8535 assessed as inhibition of fungal growth incubated for 48 to 72 hrs by microplate reader analysis; assay type: functional; details: time 48-72 hrs
[Candida] auris [2] = Antifungal activity against Candida auris 0029 assessed as inhibition of fungal growth incubated for 48 to 72 hrs by microplate reader analysis; assay type: functional, organism-based; details: Candidozyma auris, time 48-72 hrs
Cryptococcus neoformans [3] = assay: Antifungal activity against Cryptococcus neoformans HN-68 assessed as inhibition of fungal growth incubated for 48 to 72 hrs by microplate reader analysis; assay type: functional; details: time 48-72 hrs
Candida albicans [4] = assay: Antifungal activity against Candida albicans 9296 assessed as inhibition of fungal growth incubated for 48 to 72 hrs by microplate reader analysis; assay type: functional, organism-based; details: time 48-72 hrs
Cryptococcus gattii = assay: Antifungal activity against Cryptococcus gattii 01063P assessed as inhibition of fungal growth incubated for 48 to 72 hrs by microplate reader analysis; assay type: functional; details: time 48-72 hrs
Cryptococcus neoformans [5] = assay: Antifungal activity against Cryptococcus neoformans H99 assessed as inhibition of fungal growth incubated for 48 to 72 hrs by microplate reader analysis; assay type: functional; details: time 48-72 hrs
Candida albicans [6] = assay: Antifungal activity against Candida albicans 103 assessed as inhibition of fungal growth incubated for 48 to 72 hrs by microplate reader analysis; assay type: functional, organism-based; details: time 48-72 hrs
Nakaseomyces glabratus [7] = assay: Antifungal activity against Candida glabrata 9256 assessed as inhibition of fungal growth incubated for 48 to 72 hrs by microplate reader analysis; assay type: functional; details: time 48-72 hrs
Nakaseomyces glabratus [8] = assay: Antifungal activity against Candida glabrata 0161 assessed as inhibition of fungal growth incubated for 48 to 72 hrs by microplate reader analysis; assay type: functional; details: time 48-72 hrs
Candida albicans [9] = assay: Antifungal activity against Candida albicans SC5314 assessed as inhibition of fungal growth incubated for 48 to 72 hrs by microplate reader analysis; assay type: functional, organism-based; details: time 48-72 hrs
[Candida] auris [10] = Antifungal activity against Candida auris 15448 assessed as inhibition of fungal growth incubated for 48 to 72 hrs by microplate reader analysis; assay type: functional, organism-based; details: Candidozyma auris, time 48-72 hrs
Cryptococcus neoformans [11] = assay: Antifungal activity against Cryptococcus neoformans 011409 assessed as inhibition of fungal growth incubated for 48 to 72 hrs by microplate reader analysis; assay type: functional; details: time 48-72 hrs
[Candida] auris [12] = Antifungal activity against Candida auris 0030 assessed as inhibition of fungal growth incubated for 48 to 72 hrs by microplate reader analysis; assay type: functional, organism-based; details: Candidozyma auris, time 48-72 hrs

Measured: Activity

CCCCc1ccc(NC(=S)n2[nH]c(N)cc2=O)cc1
active: all assays above

CS(=O)(=O)c1ccc(NC(=S)n2[nH]c(N)cc2=O)cc1
inactive: [Candida] auris [2] Not active; Compound Demonstrated Reduced Activity Compared To Lead Compound 1 | Cryptococcus neoformans [3] Not active; Compound Demonstrated Reduced Activity Compared To Lead Compound 1 | Candida albicans [4] Not active; Compound Demonstrated Reduced Activity Compared To Lead Compound 1 | Cryptococcus gattii Not active; Compound Demonstrated Reduced Activity Compared To Lead Compound 1 | Cryptococcus neoformans [5] Not active; Compound Demonstrated Reduced Activity Compared To Lead Compound 1 | Candida albicans [6] Not active; Compound Demonstrated Reduced Activity Compared To Lead Compound 1 | Candida albicans [9] Not active; Compound Demonstrated Reduced Activity Compared To Lead Compound 1 | [Candida] auris [10] Not active; Compound Demonstrated Reduced Activity Compared To Lead Compound 1 | Cryptococcus neoformans [11] Not active; Compound Demonstrated Reduced Activity Compared To Lead Compound 1 | [Candida] auris [12] Not active; Compound Demonstrated Reduced Activity Compared To Lead Compound 1
active: Nakaseomyces glabratus [1] | Nakaseomyces glabratus [7] | Nakaseomyces glabratus [8]

CC(=O)c1ccc(NC(=S)n2[nH]c(N)cc2=O)cc1
inactive: [Candida] auris [2] Not active; Compound Demonstrated Reduced Activity Compared To Lead Compound 1 | Cryptococcus neoformans [3] Not active; Compound Demonstrated Reduced Activity Compared To Lead Compound 1 | Candida albicans [4] Not active; Compound Demonstrated Reduced Activity Compared To Lead Compound 1 | Cryptococcus gattii Not active; Compound Demonstrated Reduced Activity Compared To Lead Compound 1 | Cryptococcus neoformans [5] Not active; Compound Demonstrated Reduced Activity Compared To Lead Compound 1 | Candida albicans [6] Not active; Compound Demonstrated Reduced Activity Compared To Lead Compound 1 | Candida albicans [9] Not active; Compound Demonstrated Reduced Activity Compared To Lead Compound 1 | [Candida] auris [10] Not active; Compound Demonstrated Reduced Activity Compared To Lead Compound 1 | Cryptococcus neoformans [11] Not active; Compound Demonstrated Reduced Activity Compared To Lead Compound 1 | [Candida] auris [12] Not active; Compound Demonstrated Reduced Activity Compared To Lead Compound 1
active: Nakaseomyces glabratus [1] | Nakaseomyces glabratus [7] | Nakaseomyces glabratus [8]

Nc1ccn(C(=S)Nc2ccc(C3CCCCC3)cc2)n1
inactive: all assays above

Nc1cc(=O)n(C(=S)Nc2ccc(OC3CCCCC3)cc2)[nH]1
active: all assays above

CNC(=O)c1ccc(NC(=S)n2[nH]c(N)cc2=O)cc1
inactive: [Candida] auris [2] Not active; Compound Demonstrated Reduced Activity Compared To Lead Compound 1 | Cryptococcus neoformans [3] Not active; Compound Demonstrated Reduced Activity Compared To Lead Compound 1 | Candida albicans [4] Not active; Compound Demonstrated Reduced Activity Compared To Lead Compound 1 | Cryptococcus gattii Not active; Compound Demonstrated Reduced Activity Compared To Lead Compound 1 | Cryptococcus neoformans [5] Not active; Compound Demonstrated Reduced Activity Compared To Lead Compound 1 | Candida albicans [6] Not active; Compound Demonstrated Reduced Activity Compared To Lead Compound 1 | Candida albicans [9] Not active; Compound Demonstrated Reduced Activity Compared To Lead Compound 1 | [Candida] auris [10] Not active; Compound Demonstrated Reduced Activity Compared To Lead Compound 1 | Cryptococcus neoformans [11] Not active; Compound Demonstrated Reduced Activity Compared To Lead Compound 1 | [Candida] auris [12] Not active; Compound Demonstrated Reduced Activity Compared To Lead Compound 1
active: Nakaseomyces glabratus [1] | Nakaseomyces glabratus [7] | Nakaseomyces glabratus [8]

CCCCCCc1ccc(NC(=S)n2[nH]c(N)cc2=O)cc1
active: all assays above

Nc1cc(=O)n(C(=S)Nc2ccc(C(=O)c3ccccc3)cc2)[nH]1
inactive: [Candida] auris [2] | Candida albicans [4] | Candida albicans [6] | Candida albicans [9] | [Candida] auris [10] | [Candida] auris [12]
active: all other assays above

Nc1cc(=O)n(C(=S)Nc2ccc3ncccc3c2)[nH]1
inactive: [Candida] auris [2] Not active; Decrease In Activity Observed | Candida albicans [4] Not active; Decrease In Activity Observed | Candida albicans [6] Not active; Decrease In Activity Observed | Candida albicans [9] Not active; Decrease In Activity Observed | [Candida] auris [10] Not active; Decrease In Activity Observed | [Candida] auris [12] Not active; Decrease In Activity Observed
active: all other assays above

CC(=O)c1ccc(NC(=O)n2[nH]c(N)cc2=O)cc1
inactive: all assays above

CCCCCCc1ccc(NC(=S)N2N=C(N)CCC2=O)cc1
inactive: all assays above

Nc1cc(=O)n(C(=S)Nc2ccc3c(c2)COC3=O)[nH]1
inactive: Nakaseomyces glabratus [1] Not active; Decrease In Activity Observed | [Candida] auris [2] | Cryptococcus neoformans [3] Not active; Decrease In Activity Observed | Candida albicans [4] | Cryptococcus gattii Not active; Decrease In Activity Observed | Cryptococcus neoformans [5] Not active; Decrease In Activity Observed | Candida albicans [6] | Nakaseomyces glabratus [7] Not active; Decrease In Activity Observed | Nakaseomyces glabratus [8] Not active; Decrease In Activity Observed | Candida albicans [9] | [Candida] auris [10] | Cryptococcus neoformans [11] Not active; Decrease In Activity Observed | [Candida] auris [12]

Nc1cc(=O)n(C(=S)Nc2cccnc2)[nH]1
inactive: Nakaseomyces glabratus [1] Not active; Decrease In Activity Observed | [Candida] auris [2] | Cryptococcus neoformans [3] Not active; Decrease In Activity Observed | Candida albicans [4] | Cryptococcus gattii Not active; Decrease In Activity Observed | Cryptococcus neoformans [5] Not active; Decrease In Activity Observed | Candida albicans [6] | Nakaseomyces glabratus [7] Not active; Decrease In Activity Observed | Nakaseomyces glabratus [8] Not active; Decrease In Activity Observed | Candida albicans [9] | [Candida] auris [10] | Cryptococcus neoformans [11] Not active; Decrease In Activity Observed | [Candida] auris [12]

Nc1cc(=O)n(C(=S)Nc2ccc(OC3CCCC3)cc2)[nH]1
active: all assays above

Source: ChEMBL document CHEMBL6109146, “Discovery of New Pyrazolone Carbothioamide Derivatives as Potent Antifungal Agents for the Treatment of Candidiasis and Cryptococcosis” (J Med Chem, 2025)
